# Patent US4886785A, “Pyrimidine derivatives, pharmaceutical compositions and method of using same” (Hoffmann-La Roche Inc., priority 1986, dated 1989)
# Target: herpes simplex virus type 2 (HSV-2) thymidine kinase (Human herpesvirus 2, UniProt P89446)
# Assay: Inhibition of herpes simplex virus type 2 (HSV-2) thymidine kinase in vitro (3H-thymidine phosphorylation)
# Type: biochemical
# Settings: thymidine kinase extract, 0.3 μM 3H-thymidine, 5 mM ATP, pH 8, 37° C., 30 minutes
# Description: In this test, the assay mixture contains 50 mM Tris-HCl, pH 8, 5 mM magnesium chloride, 5 mM ATP, 0.3 μM ^3 H-thymidine (50 Ci/mmol), suitably diluted thymidine kinase extract and various concentrations of compounds of formula I or tautomers in a total volume of 100 μl. Assays are incubated at 37° C. for 30 minutes and the reaction is terminated by immersion in a boiling water bath for 2 minutes. 85 μl aliquots from each assay are then dried on cellulose paper discs and the unphosphorylated ^3 H-thymidine is removed by washing in 4 mM ammonium formate. The radioactivity remaining bound to the discs is then measured by scintillation spectrophotometry. The degree of inhibition at each concentration of compound of formula I is expressed as a percentage of the control reaction (100%) after substracting a measured blank value which represents the amount of radioactivity bound to the disc from a reaction containing heat inactivated enzymes. The IC50 value, namely the concentration of compound of formula I or tautomer thereof which inhibits enzyme activity by 50%, is then calculated. The results obtained with representative compounds of formula I are compiled in the following Table: […]
# Sequence of herpes simplex virus type 2 (HSV-2) thymidine kinase (P89446 whole entry): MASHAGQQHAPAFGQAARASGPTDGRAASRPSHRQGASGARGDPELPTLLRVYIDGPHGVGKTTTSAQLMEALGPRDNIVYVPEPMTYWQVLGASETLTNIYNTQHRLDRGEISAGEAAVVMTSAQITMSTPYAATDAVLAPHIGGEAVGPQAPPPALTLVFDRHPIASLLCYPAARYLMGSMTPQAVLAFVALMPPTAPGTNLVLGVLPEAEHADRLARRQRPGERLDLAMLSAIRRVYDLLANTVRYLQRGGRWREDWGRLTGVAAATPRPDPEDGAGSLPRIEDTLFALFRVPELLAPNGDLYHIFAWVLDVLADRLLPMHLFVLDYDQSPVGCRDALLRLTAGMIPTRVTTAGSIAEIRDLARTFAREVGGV
row,IC50 [nM],SMILES
1,90,"CCc1cn([C@H]2C[C@H](O)[C@@H](CNCCc3c(Cl)cccc3Cl)O2)c(=O)[nH]c1=O [Example 3b, 5'-[2-(2,6-dichlorophenyl)ethylamino]-2',5'-dideoxy-5-ethyluridine]"
2,60,"CCc1cn([C@H]2C[C@H](O)[C@@H](CNCc3cccc(Cl)c3Cl)O2)c(=O)[nH]c1=O [Example 4b, 5'-(2,3-dichlorobenzylamino)-2',5'-dideoxy-5-ethyluridine]"
3,80,"CCc1cn([C@H]2C[C@H](O)[C@@H](CNCc3c(Cl)cccc3Cl)O2)c(=O)[nH]c1=O [Example 4c, 5'-(2,6-dichlorobenzylamino)-2',5'-dideoxy-5-ethyluridine]"
